How the values were obtained:
[1] = Measurement of optophysical properties (absorbance, fluorescence emission, quantum yield, pH dependence); type: physicochemical; settings: for Abs λMax / Em λMax / QY (quantum yield) / ε (extinction coefficient): pH 7.4
Description: Measurement of optophysical properties: Absorbance and fluorescence emission spectra of the series of NIR fluorophores were measured using fiber optic HR2000 absorbance (200-1100 nm) and USB2000FL fluorescence (350-1000 nm) spectrometers (Ocean Optics, Dunedin, FL). NIR excitation was provided by a 655 nm red laser pointer (Opcom Inc., Xiamen, China) set to 5 mW and coupled through a 300 μm core diameter, NA 0.22 fiber (Fiberguide Industries, Stirling, NJ). To determine the pH dependence of the fluorescence signal, optical measurements were performed at 37° C. in PBS, pH 4.0-7.4 or 100% FBS buffered with 50 mM HEPES, pH 4.0-7.4. The pH of the solutions was adjusted as appropriate with NaOH and HCl using a pH spear tester (Thermo Scientific). For fluorescence quantum yield (QY) measurements, indocyanine green (ICG) in DMSO (QY=13%) was used as a calibration standard to measure the fluorescence QY under conditions of matched absorbance at 765 nm. In silico calculations of the partition coefficient (LogP and LogD at pH 7.4), surface molecular charge, hydrophobicity, hydrogen bond acceptors/donors (HBA/HBD), the acid dissociation constant (pKa), and topological polar surface area (TPSA) were calculated using Marvin and JChem calculator plugins (ChemAxon, Budapest, Hungary). Theoretical calculations of HOMO and LUMO energy levels of fluorophores were performed based on density functional theory (DFT) with a 6-311 G basis set using Spartan 18 software (Wavefunction, Irvine, CA). […]

ID8 cells = assay: Subcellular localization (co-localization with MitoTracker, LysoTracker, NucBlue); type: cell-based, murine; settings: 10 μM, 30 min incubation
Description: FIG. 3 Subcellular localization of pH sensing NIR fluorophores: (a) Subcellular localization of each probe (10 μM) in ID8 cells was determined after 30 min of incubation at 37° C. Nuclei, mitochondria, and lysosomes were stained with NucBlue, MitoTracker Green, or LysoTracker Red, respectively. Representative fluorescence images of cells. Scale bar=20 μm. (b) Co-localization index of each probe with MitoTracker Green or LysoTracker Red. The index was calculated by dividing the area of overlap between pH probe and MitoTracker or LysoTracker by the total area of MitoTracker or LysoTracker, respectively. The co-localization index was determined in 5-6 photographic areas (70×92 μm^2 each) for each probe. *P<0.05 by two-way ANOVA followed by Tukey's multiple comparisons test. Error bars show means±s.d.
Live-cell labeling and in vitro imaging: Murine ovarian cancer cells (ID8 cells) were obtained from Dr. Wang's lab in the Vincent Center for Reproductive Biology at Massachusetts General Hospital (MGH). Cells were cultured and maintained in Dulbecco's modified Eagle's medium (DMEM) supplemented with 4% FBS (Gibco, Grand Island, NY), 1% insulin-transferrin-selenium (Sigma-Aldrich), and 1% penicillin-streptomycin (Gibco). Cells were plated in a T-75 culture flask until 70% confluency before dividing for the next passage. For fluorophore binding affinity, ID8 cells were incubated at a density of 20,000 cells/well in a 24-well plate in a humidified incubator at 37° C. under 5% CO2 in the air. Cells were then incubated at 37° C. for 30 min in the presence of 0.2 μM of PH03 or PH08 and phenol red-free Hank's balanced salt solution (HBSS) with or without 10% FBS. […] Image acquisition and analysis were performed using IPLab software (Scanalytics, Fairfax, VA), and the fluorescent intensity of each cell was measured using ImageJ (National Institutes of Health, Bethesda, MD). The outline of each cell was determined on a phase-contrast image to specify the region of interest (ROI) and superimposed on a fluorescence image for measurements. All NIR fluorescence images for each fluorophore were normalized identically for all conditions during an experiment. […]
Subcellular distribution of pH sensing NIR fluorophores: To investigate the fate of the NIR fluorophores after uptake by cells, we performed in vitro live-cell imaging and evaluated subcellular localization of the NIR fluorophores in cultured ID8 ovarian cancer cells. PH03 and PH08 were incubated with ID8 cells for 30 min followed by double staining with commercially available MitoTracker or LysoTracker Green and imaged under the house-built NIR fluorescence microscope. […]

Row | Abs λMax [1] | Em λMax [1] | QY (quantum yield) [1] | ε (extinction coefficient) [1] | absorbance wavelength before red-shift ([1]; neutral pH (7.4)) | molecular absorbance ε at 760 nm ([1]; neutral pH condition (pH=7.4)) | absorbance wavelength after red-shift ([1]; pH 4.0) | molecular absorbance ε at 760 nm ([1]; pH decreases to 4.0) | SMILES | optical response to pH [1] | overlap of fluorescence signal with LysoTracker (lysosome) (ID8 cells) | overlap of fluorescence signal with MitoTracker (mitochondria) (ID8 cells)
1 | 765 nm | 785 nm | 21.7% | 364,800 M^−1cm^−1 | – | – | – | – | CCN1/C(=C/C=C2\CCCC(/C=C/C3=[N+](CC)c4ccccc4C3(C)C)=C2c2ccccc2)C(C)(C)c2ccccc21 [PH03, 1-Ethyl-2-((E)-2-((E)-6-(2-((E)-1-ethyl-3,3-dimethylindolin-2-ylidene)ethylidene)-3,4,5,6-tetrahydro-[1,1′-biphenyl]-2-yl)vinyl)-3,3-dimethyl-3H-indol-1-ium iodide] | little to no change in response to pH | 34.93% | 91.47%
2 | 710 nm | 794 nm | 16.0% | 43,800 M^−1cm^−1 | 710 nm | 92,600 M^−1 cm^−1 | 765 nm | 134,500 M^−1 cm^−1 | CCN1/C(=C/C=C2\CCCC(/C=C/C3=[N+](CC)c4ccccc4C3(C)C)=C2N2CCNCC2)C(C)(C)c2ccccc21 [PH08] | increases its fluorescence in mildly acidic conditions between pH 7.0 and 4.0 | 71.83% | 83.05%
